# Source: patent US20020049151A1, “Therapeutic approaches to diseases by suppression of the NURR subfamily of nuclear transcription factors” (priority 2000, published 2002)
# Ends that are not written are not given here.
# How the values were obtained:
# NURR1 mRNA [1] = assay: Northern blot of NURR1 mRNA in primary synoviocytes; assay type: cell-based, human; conditions: for effect on IL-1β-induced NURR1 mRNA: IL-1β 10 ng/ml, indomethacin 2 μM; for NURR1 mRNA levels after stimulation: 20 ng/ml PMA, 10 ng/ml TNFα, IL-1β, IL-6, 1 μM PGE2, CRH
# Method: (§1) Regulation of gene expression by the protein kinase A and C pathways represent important signaling events in RA synoviocytes (Ben-Av et al., 1995; Crofford et al., 1994; Firestein and Manning, 1999). […] To investigate the involvement of the protein kinase C signaling pathways in NURR regulation, synoviocytes were treated with phorbal myristic acetate (PMA). […] In contrast, dexamethasone had little effect on forskolin- or PMA-induced NUR77 levels.
# (§2) In FIG. 4 total RNA was extracted and northern blot analysis was performed. Filters were hybridized with a cDNA for NURR1 or NUR77 and also with GAPDH to control for loading and transfer. Synovial explants were left untreated [C] or incubated with 10^−8M CRH for the indicated times. (FIG. 4A) Confluent monolayers of primary synoviocytes were left untreated [C] or pretreated with 10^−8M dexamethasone (DEX) for 2 h prior to the addition of 25μM forskolin (FOR) or 20 ng/ml of phorbal myristic acetate (PMA). (FIG. 4B)
# Therefore the pathological importance of the NURR transcription factors in inflammatory joint disease was further examined by determining the ability of pro-inflammatory agonists to regulate NURR transcript levels in primary synoviocytes and synovium explant tissue (FIG. 6).
# (§3) For FIG. 6 each membrane was reprobed with a GAPDH cDNA to control for loading and transfer. NURR1 mRNA levels were measured by northern analysis using total RNA extracted from synoviocytes left untreated [C] or cultured for the time indicated with (A) TNFα (10 ng/ml) in the presence or absence of pre-treatment with 10^−8M dexamethasone (DEX). (B) IL-1β(10 ng/ml) in the presence or absence of pretreatment with 2 μM indomethacin (INDO) or 10^−8M DEX. (C) or synovial explants cultured with IL-6 (10 ng/ml). (D) 1 μM PGE2. (E) 25 μM forskolin (FOR) or […] for 1h in the absence or presence of 5 µg/ml cycloheximide (CHX).
# Northern analysis of primary RA synoviocytes were untreated (lane 1) or treated for 1 hour with TNFα (lane 2), IL-1β (lane 3), and PGE2 (lane 4). TNFα and IL-1β were used at a concentration of 10 ng/mL and PGE2 was at a concentration of 10^-6 M.
# (§4) Total RNA was isolated from cultured primary synoviocytes or synovial explants. RNA was quantitated by UV absorption and 10 μg of total RNA were electrophoresed on a standard northern gel and transferred to nylon membrane (BioRad, Richmond, Calif.). NURR1 and NUR77 cDNA probes (Murphy and Conneely, 1997), spanning the amino terminal region to avoid cross-hybridization, were radiolabeled to a high specific activity using [α-^32P] dCTP and a random primer labeling system (Promega, Madison, Wis.). Blots were exposed to film at −80° C. using intensifying screens and autoradiographic intensity was quantitated using an imaging densitometer.
# NURR1 mRNA [2] = assay: Northern blot of NURR1 mRNA in synovium explants; assay type: cell-based, human; conditions: CRH 10^−8 M
# Method: (§5) To determine whether the NURR subfamily contribute to CRH signaling in a pathological context, freshly excised RA (FIG. 4A) and PsA synovium explants were incubated with CRH (10^−8 M) and examined for its ability to induce expression of NURR1 and NUR77 transcripts. […] Furthermore, analysis of synovium explants indicates higher endogenous and CRH-inducible NURR1 mRNA compared to NUR77 transcript levels.
# as §2, §3, §4
# NUR77 mRNA [3] = assay: Northern blot of NUR77 mRNA in synovium explants; assay type: cell-based, human; conditions: CRH 10^−8 M
# Method: as §5, §2, §4
# NUR77 mRNA [4] = assay: Northern blot of NUR77 mRNA in primary synoviocytes; assay type: cell-based, human; conditions: 25 μM forskolin, 20 ng/ml PMA, CRH
# Method: as §1
# In FIG. 4 total RNA was extracted and northern blot analysis was performed. Filters were hybridized with a cDNA for NURR1 or NUR77 and also with GAPDH to control for loading and transfer. Synovial explants were left untreated [C] or incubated with 10^−8M CRH for the indicated times. […]
# Dexamethasone (10^−8M) inhibited the TNFα, IL-1β (FIGS. 6A and B) and PGE2-stimulated NURR1 MRNA in synoviocytes and CRH-induced NURR1 expression in synovium explants. […] For each northern blot shown in FIG. 6, NUR77 mRNA levels were also analyzed. […]
# Total RNA was isolated from cultured primary synoviocytes or synovial explants. RNA was quantitated by UV absorption and 10 μg of total RNA were electrophoresed on a standard northern gel and transferred to nylon membrane (BioRad, Richmond, Calif.). […] Blots were exposed to film at −80° C. using intensifying screens and autoradiographic intensity was quantitated using an imaging densitometer.
# CRH R1 = conditions: cited from earlier work
# [5] = dexamethasone 10^−8M, cycloheximide 5 µg/ml
compound,measurement,setting,value
COc1ccc2c(c1)c(CC(=O)O)c(C)n2C(=O)c1ccc(Cl)cc1 [indomethacin],effect on IL-1β-induced NURR1 mRNA,NURR1 mRNA [1]; dexamethasone 10^−8M,not blocked
"CRH: Corticotropin Releasing Hormone, a major regulator of the hypothalamic pituitary axis (SEEPPISLDLTFHLLREVLEMARAEQLAQQAHSNRKLMEII; ends and bridges not checked; UniProt P06850 154-194, looked up)",NURR1 mRNA induction in synovium explants,"NURR1 mRNA [2]; RA and PsA synovium explants, IL-6 10 ng/ml",rapidly induced
same,time to NURR1 mRNA induction,NURR1 mRNA [2]; synovium explants,≤ 1 h
same,time to decline of NURR1 mRNA to basal levels,NURR1 mRNA [2]; synovium explants,≤ 3 h
same,NUR77 mRNA induction in synovium explants,NUR77 mRNA [3]; RA and PsA synovium explants,rapidly induced
same,time to NUR77 mRNA induction,NUR77 mRNA [3]; synovium explants,≤ 1 h
same,time to decline of NUR77 mRNA to basal levels,NUR77 mRNA [3]; synovium explants,≤ 3 h
same,NURR1 mRNA levels after stimulation,NURR1 mRNA [1]; 25 μM forskolin,not observed
same,NUR77 mRNA levels after stimulation,NUR77 mRNA [4],not observed
"CCCCCCCCCCCCCC(=O)O[C@@H]1[C@@H](C)[C@@]2(O)[C@@H](C=C(CO)C[C@]3(O)C(=O)C(C)=C[C@@H]23)[C@@H]2C(C)(C)[C@]12OC(C)=O [PMA, phorbal myristic acetate, reference compound]",NURR1 mRNA levels after stimulation,NURR1 mRNA [1]; 25 μM forskolin,no stimulatory effects
same,NUR77 mRNA levels after stimulation,NUR77 mRNA [4],modestly up-regulated
CCCCN(CC)c1nc(C)nc2c1c(C)c(C)n2-c1c(C)cc(C)cc1C [antalarmin],CRH antagonism at sites of inflammation in vivo,CRH R1,clinically effective CRH antagonist at sites of inflammation
C[C@@H]1C[C@H]2[C@@H]3CCC4=CC(=O)C=C[C@]4(C)[C@@]3(F)[C@@H](O)C[C@]2(C)[C@@]1(O)C(=O)CO [dexamethasone],basal / endogenous NURR1 expression,NURR1 mRNA [1]; [5],no effect
"C[C@@H]1C[C@@H]([C@H](O)CC2CC(=O)NC(=O)C2)C(=O)[C@@H](C)C1 [Cycloheximide, cycloheximide]",effect on forskolin-induced NURR1 expression,"NURR1 mRNA [1]; 25 μM forskolin, dexamethasone 10^−8M pre-treatment 2 h, cycloheximide 5 µg/ml",robustly enhanced
same,effect on IL-1β-induced NURR1 mRNA,NURR1 mRNA [1]; dexamethasone 10^−8M,robustly enhanced
same,effect on TNFα-stimulated NURR1 mRNA,"NURR1 mRNA [1]; TNFα 10 ng/ml, dexamethasone 10^−8M",robustly enhanced
same,basal / endogenous NURR1 expression,NURR1 mRNA [1]; [5],increased
same,effect on PGE2-stimulated NURR1 mRNA,"NURR1 mRNA [1]; dexamethasone 10^−8M, cycloheximide 5 µg/ml, 1M PGE2 for 1h",robustly enhanced
